Laboratory results: article PMC10531759, “Key Amino Acid Residues Involved in Binding Interactions between Bactrocera minax Odorant-Binding Protein 3 (BminOBP3) and Undecanol” (Insects, 2023)
Changes are numbered by the printed parent chain. Entries after “also recorded” stand apart in the source; their conditions may differ.

Legend:
[1] = target: T1, V120A (BminOBP3-V120A mutant) (Bactrocera minax, UniProt A0A3G2LEF2, V113A); assay: Fluorescence competitive binding assay (1-NPN displacement by undecanol), V120A mutant; settings: undecanol up to 36 μM
T1 sequence (A0A3G2LEF2 27-115 V113A): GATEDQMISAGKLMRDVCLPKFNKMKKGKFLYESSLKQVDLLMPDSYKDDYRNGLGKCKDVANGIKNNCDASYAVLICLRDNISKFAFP
Method: (§1) In order to explore the binding affinities of BminOBP3 and its mutants to undecanol, the binding assays were conducted on a fluorescence spectrophotometer (F-7000; Hitachi, Japan) with parameters set same as the previous study. The fluorescent probe 1-NPN and undecanol were diluted in the HPLC methanol to 1 mM, whereas the protein samples were dissolved in 20 mM Tris-HCL pH 7.4 to obtain 2 μM protein solutions.
(§2) To measure the dissociation constant (Kd) of 1-NPN to BminOBP3 and mutants, aliquots of 1 mM 1-NPN were added to the 2 μM protein solution with a final concentration of 1-NPN ranging from 0 to 22 μM, and the resulting fluorescence intensity values of the maximum fluorescence emission were recorded for the construction of binding curves and Scatchard plots. Bound 1-NPN was determined by fluorescence intensities with the assumption that the protein was 100% active, and it binds the ligands at a 1:1 stoichiometric ratio when saturated. […] The maximal fluorescence intensity values were plotted against undecanol concentrations. The inhibition constant (Ki) of each protein was calculated based on the following equation: Ki = [IC50]/(1 + [1-NPN]/K1-NPN). IC50 is the concentration of ligand halving initial fluorescence intensity; [1-NPN] is the free concentration of 1-NPN; and K1-NPN is the dissociation constant of the protein/1-NPN complex. […]

[2] = system: T57A (BminOBP3-T57A mutant); assay: Fluorescence binding assay with undecanol, T57A mutant; set-up: species or system Bactrocera minax; settings: Figure S7 and Table S2
Method: as §1
as §2, with “[1-NPN]/K1-NPN).” for “[1-NPN]/K1-NPN). IC50 is the concentration of ligand halving initial fluorescence intensity; [1-NPN] is the free concentration of 1-NPN; and K1-NPN is the dissociation constant of the protein/1-NPN complex.”
(§3) (the information regarding 13 ligands see Supplemental Data Table S4). […] Conformation 3 was an effective conformation, which is shown in Figure 2A, as it was validated by subsequent mutagenesis studies and fluorescence binding assays. […]

[3] = system: Y84A (BminOBP3-Y84A mutant); assay: Fluorescence binding assay with undecanol, Y84A mutant; set-up: species or system Bactrocera minax; settings: Figure S7 and Table S2
Method: as §1
as §2, with “[1-NPN]/K1-NPN).” for “[1-NPN]/K1-NPN). IC50 is the concentration of ligand halving initial fluorescence intensity; [1-NPN] is the free concentration of 1-NPN; and K1-NPN is the dissociation constant of the protein/1-NPN complex.”
as §3

[4] = target: T2, BminOBP3 (wild-type protein) (Bactrocera minax, UniProt A0A3G2LEF2); set-up: method as in PMID 34668560; settings: competitive fluorescence binding experiments of previous study; cited from earlier work
T2 sequence (A0A3G2LEF2 27-115): T1 sequence (A0A3G2LEF2 27-115 V113A) with A87V

[5] = target: T2, BminOBP3 (wild-type protein); assay: Fluorescence competitive binding assay (1-NPN displacement by undecanol), wild-type protein; settings: pH 5.0 compared with pH 7.4; Figure S8 and Table S3
Method: as §1, §2

[6] = target: T3, T-OBP3 (mutant that lacks I116-P122 from the C-terminus of BminOBP3) (Bactrocera minax, UniProt A0A3G2LEF2); assay: Fluorescence competitive binding assay (1-NPN displacement by undecanol), C-terminus truncated mutant; settings: compared with wild-type protein
T3 sequence (A0A3G2LEF2 27-108): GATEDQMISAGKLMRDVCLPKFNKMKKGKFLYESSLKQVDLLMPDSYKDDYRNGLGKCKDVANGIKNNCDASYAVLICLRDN
Method: as §1, §2

[7] = target: T4, 3D2a (mutant that lacks F121 and P122 from the C-terminus of BminOBP3) (Bactrocera minax, UniProt A0A3G2LEF2); assay: Fluorescence competitive binding assay (1-NPN displacement by undecanol), 3D2a mutant; settings: undecanol up to 36 μM
T4 sequence (A0A3G2LEF2 27-113): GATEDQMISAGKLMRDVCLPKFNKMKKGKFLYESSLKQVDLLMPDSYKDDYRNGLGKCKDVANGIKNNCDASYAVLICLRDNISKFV
Method: as §1, §2

Compound: CCCCCCCCCCCO [undecanol, 1-undecanol]
- binding to undecanol (in words) [1]: completely abolished; also recorded: completely lost their binding capacity
- affinity to undecanol compared with the wild-type protein (in words) [2]: obvious increase
- affinity to undecanol compared with the wild-type protein (in words) [3]: obvious increase
- binding affinity of BminOBP3 among 13 ligands tested (in words) [4]: strong binding affinity
- affinity between BminOBP3 and undecanol at acidic pH (in words) [5]: significant decrease
- affinity for undecanol compared with BminOBP3 (in words) [6]: significant decrease
- binding to undecanol (in words) [7]: completely abolished; also recorded: completely lost their binding capacity
